Assay results reported in paper PMC5754413, “Mass balance, metabolic disposition, and pharmacokinetics of a single oral dose of regorafenib in healthy human subjects” (Cancer Chemotherapy and Pharmacology, 2017).
Values joined by “and” are separate entries in the source; they are usually repeats but may differ in a detail not shown here. Equal entries are not always repeated.

Experiments:
human hepatocytes = assay: In vitro metabolism of [14C]regorafenib in human hepatocytes; format: in vitro ADME; settings: [14C]regorafenib 2 µM, 2 h
Description: Primary human hepatocytes were obtained from two male donors. […] Regorafenib was added from a 200 µM stock solution in acetonitrile, resulting in 1% final acetonitrile in the incubation. At 0 and 2 h, aliquots of the incubation mixture were removed and the incubation was terminated with acetonitrile to a final content of about 30% (v/v). Samples were analyzed directly or stored at − 20 °C until analysis. Analysis was performed by HPLC–liquid scintillation counting (HPLC–LSC) and HPLC–high-resolution mass spectrometry (HPLC–HRMS/MS).

[1] = Metabolite profiling in plasma by HPLC–LSC; format: in vivo, human; settings: for Occurrence in plasma: radiochromatography of plasma; for Percent of total AUC(0–144) of radioactivity in plasma: based on HPLC–LSC, mean
Description: Blood and plasma: Blood samples (18.7 mL per each time point) were collected into nonbeaded lithium-heparinized tubes immediately pre-dose and at the following post-dose times: 0.5, 1, 1.5, 2, 2.5, 3, 4, 6, 9, 12, 16, 20, 24, 36, 48, 72, 96, 120, 144, 192, 240, and 288 h. For each sample, 1 mL of whole blood was stored at 4 °C for subsequent LSC and the remainder was processed for plasma. Individual 150 μL plasma samples for each time point were treated with formic acid (20 μL) and acetonitrile (450 μL). The samples were homogenized using a MS2 Minishaker® (IKA® Labortechnik, Staufen im Breisgau, Germany). The precipitated proteins were removed by centrifugation (5 min, 13,000 rpm, Biofuge). After concentrating the supernatant to about 80 μL, methanol (15 μL) was added. The individual samples were analyzed by HPLC with off-line radioactivity detection for metabolite profiling.
Pharmacokinetic outcome measures were generated by non-compartmental analysis of plasma concentration–time data using WinNonlin v4.1 (Pharsight Corporation) in conjunction with Kincalc v2.50 (Bayer AG). For individual subjects, primary outcome measures were maximum observed concentration (C max) and area under the concentration–time curve from time zero to infinity (AUC). […] The metabolite or regorafenib percentages were calculated by AUC(0–144)metabolite or regorafenib divided by AUC(0–144)radioactivity calculated from data obtained by HPLC–LSC analysis. Secondary outcomes were: time to C max (t max); apparent terminal elimination half-life (t ½); apparent volume of distribution during the terminal phase after extravascular administration (Vz/F); and total body clearance of drug calculated after extravascular administration (e.g., apparent oral clearance) (CL/F). AUC was estimated by the sum of partial areas: partial areas were calculated using the linear (if C i ≤ C i+1) or the logarithmic (if C i > C i+1) trapezoidal rules. The quality of the half-life calculation was assessed based on graphs showing the concentration–time profile. For reliable calculation of the half-life, at least three data points (concentration/time values) were used. The extrapolated portion of the AUC from the last measured data point C(t n) to infinity was calculated using the concentration C last,calc, which was calculated from the log-linear regression line used for half-life calculation rather than C(t n). In addition, appropriate pharmacokinetic parameters were derived from the total radioactivity-versus-time data in blood and plasma.
(§1) Due to the limited amount of radiocarbon associated with many of the samples, analyses were conducted using HPLC with fraction collection followed by off-line LSC. Samples were analyzed on a 150 × 3 mm Prodigy® ODS-3 100A, 3 µm column (Phenomenex, Aschaffenburg, Germany) protected by 8 × 3 mm Nucleosil® 100-3 C18 HD guard columns (Macherey–Nagel, Düren, Germany). Metabolites were separated with a gradient of aqueous potassium dihydrogen phosphate (1 g/L, pH 2.0, mobile phase A) versus acetonitrile (mobile phase B) at a flow rate of 0.5 mL/min (gradient: 0% B at 0 min, linear to 50% B at 10 min, linear to 60% B at 25 min, linear to 80% B at 26 min, plateau at 80% B to 30 min). The radiochemical profile of [^14C]regorafenib-derived radioactivity was determined for all urine samples, plasma extracts, and fecal homogenate extracts. Here, HPLC fractionation into 96-well plates was followed by off-line LSC (Wallac 1450 MicroBeta liquid scintillation analyzer) after adding 150 μL of scintillation cocktail to each well (Ultima-Flo™ AP, PerkinElmer; sampling rate: 10 s/well) using the Wallac 1450 Microbeta™ Plusliquid detector. Reconstructed radiochemical profiles were compiled from the resulting data.

human feces = assay: Incubation with human feces under anaerobic conditions; format: in vitro ADME; settings: for Stability in feces / toward gut flora: anaerobic conditions, ex vivo; for Conversion to the parent drug on incubation in feces: 10 μM, 24 h, 37 °C, anaerobic, reduction of M-2, hydrolysis of M-7
Description: Under anaerobic conditions, a suspension of fresh human feces (about 0.5 g) in degassed water (final volume 5 mL) was treated with a solution of [^14C]-labelled metabolite M-2 or metabolite M-7 (1 mg/mL acetonitrile; final concentration: 10 μM). After incubation for 24 h at 37 °C, the incubation mixture was terminated by the addition of acetonitrile (2 mL). After centrifugation (5 min, 3000 rpm), the supernatant (25 μL) was directly subjected to HPLC with the respective off-line radioactivity detection. As negative controls, metabolites M-2 and M-7 were incubated in water for 24 h at 37 °C.

[2] = set-up: method as in PMID 22421192, PMID 22568966; settings: cited from earlier work; for Exposure relative to regorafenib after a single dose: plasma; for Secondary maximum of plasma concentration–time profile / Tertiary maximum of plasma concentration–time profile: steady state
[3] = set-up: method as in PMID 27734608; settings: cited from earlier work
[4] = set-up: method as in PMID 24896071; settings: co-administration of ketoconazole with a single 160 mg dose of regorafenib; cited from earlier work
[5] = Mass balance: urinary and fecal excretion of radioactivity and metabolite pattern in excreta; format: in vivo, human; settings: individual values of the four subjects
Description: Urine: Urine samples were collected at 12-h intervals post-dose on Day 1 and then at 24-h intervals until 288 h post-dose. Urine was stored at 4 °C until it was divided into aliquots for LSC and subsequent metabolite profiling (aliquots were stored at − 20 °C).
Feces: Fecal samples were collected and homogenized in water on a daily basis until 12 days post-dose. Duplicate aliquots of the homogenates were taken for combustion with oxygen (in preparation for LSC), and separate aliquots were used for metabolite profiling.
Liquid samples: Duplicate aliquots of liquid samples were diluted with 1 mL distilled water, if necessary, and mixed with 10 mL Aquasafe 500 Plus scintillation fluid. Levels of radioactivity were measured by LSC (PerkinElmer 2100) with automatic quench correction by an external standard channel ratio method at 13 °C using Ultima Gold™ as the liquid scintillation cocktail. Lower limits of detection (LLOD) were 30 μg-Eq/L for plasma (sample volume 0.5 mL), 50 μg-Eq/L for whole blood (sample volume 0.3 mL), and 0.016 μg-Eq/g for urine (sample weight 1 g).
Fecal samples: Duplicate aliquots of fecal homogenate (about 0.3 g) were weighed into Combustocones® containing Combustopads® for combustion analysis. Samples were combusted using a Packard Tri-Carb 307 Automatic Sample Oxidizer. The resultant ^14CO2 generated was collected by absorption in Carbo-Sorb (8 mL) to which Permafluor E+ (10 mL) was added. Radioactivity was quantified using a liquid scintillation analyzer (PerkinElmer 2100), with automatic quench correction using an external standard method as urine sample analysis. Samples were allowed to stabilize with respect to heat and light, and each sample was analyzed for 5 min. Prior to calculation of individual results, a background count rate was determined and subtracted from each sample’s count rate. LOD was 0.05 μg-Eq/g (sample weight 0.3 g).
as §1

Structure (SMILES)	Formation in human hepatocytes (human hepatocytes)	Stability in feces / toward gut flora (human feces)	Percent of total AUC(0–144) of radioactivity in plasma [1] [%]	Mean total exposure, AUC(0–144 h) ([1]; plasma, HPLC–LSC) [mg-Eq·h/L]	Occurrence in plasma [1]	also measured
O=C(Nc1ccc(Cl)c(C(F)(F)F)c1)Nc1ccc(Oc2ccnc(C(=O)NCO)c2)cc1F [M-3]	identified	–	–	–	only occasionally found as traces in plasma	–
CNC(=O)c1cc(Oc2ccc(NC(=O)Nc3ccc(Cl)c(C(F)(F)F)c3)c(F)c2)cc[n+]1[O-] [M-2]	identified	not stable	28.7	20.16	–	Conversion to the parent drug on incubation in feces (human feces): quantitative; Exposure relative to regorafenib after a single dose [2]: signficantly lower exposure than regorafenib; Secondary maximum of plasma concentration–time profile [2]: 6 to 8 h; Tertiary maximum of plasma concentration–time profile [2]: ~24 h; half-life ([1]; male, human, plasma, oral, 120 mg, read-out: Half-life of M-2, range between subjects): 11 to 33 h; Fraction unbound in plasma [3]: 0.188%; Decrease in mean AUC [4]: > 90%; Decrease in mean C max [4]: > 90%
O=C(Nc1ccc(Cl)c(C(F)(F)F)c1)Nc1ccc(Oc2cc[n+]([O-])c(C(=O)NCO)c2)cc1F [M-1]	observed	–	–	–	only occasionally found as traces in plasma	–
NC(=O)c1cc(Oc2ccc(NC(=O)Nc3ccc(Cl)c(C(F)(F)F)c3)c(F)c2)cc[n+]1[O-] [M-5]	observed	–	6.3	2.00	–	Terminal half-life (t 1/2) [2]: about 60 h; Exposure relative to regorafenib after a single dose [2]: signficantly lower exposure than regorafenib; Secondary maximum of plasma concentration–time profile [2]: 6 to 8 h; Tertiary maximum of plasma concentration–time profile [2]: ~24 h; Fraction unbound in plasma [3]: 0.053%; Decrease in mean AUC [4]: > 90%; Decrease in mean C max [4]: > 90%
NC(=O)c1cc(Oc2ccc(NC(=O)Nc3ccc(Cl)c(C(F)(F)F)c3)c(F)c2)ccn1 [M-4]	identified	–	–	–	only occasionally found as traces in plasma	–

Second part, led by results:

Formation in human hepatocytes (human hepatocytes)	Stability in feces / toward gut flora (human feces)	Percent of total AUC(0–144) of radioactivity in plasma [1] [%]	Mean total exposure, AUC(0–144 h) ([1]; plasma, HPLC–LSC) [mg-Eq·h/L]	Structure (SMILES)	Occurrence in plasma [1]	also measured
observed	not stable	–	–	CNC(=O)c1cc(Oc2ccc(NC(=O)N(c3ccc(Cl)c(C(F)(F)F)c3)C3OC(C(=O)O)C(O)C(O)C3O)c(F)c2)cc[n+]1[O-] (stereo not shown) [M-8]	only occasionally found as traces in plasma	Course of degradation on incubation with human feces (human feces): reduction of the N-oxide leading to M-7 proceeded much faster than cleavage of the N-glucuronide yielding M-2
identified	–	–	–	O=C(Nc1ccc(Cl)c(C(F)(F)F)c1)Nc1ccc(Oc2ccnc(C(=O)O)c2)cc1F [M-6]	–	–
identified	not stable	3.1	2.43	CNC(=O)c1cc(Oc2ccc(NC(=O)N(c3ccc(Cl)c(C(F)(F)F)c3)C3OC(C(=O)O)C(O)C(O)C3O)c(F)c2)ccn1 (stereo not shown) [M-7]	–	Conversion to the parent drug on incubation in feces (human feces): < 10%; Fecal excretion of M-7 in individual subjects [5]: 0.03 % of the dose and 0.3 % of the dose and about 6.0 % of the dose and 13.7 % of the dose and about 14 % of the dose; C max, range between subjects ([1]; plasma, HPLC–LSC): 137–174 μg-Eq/L
